Laboratory results as given in patent US11564911B2, “Small molecule dual-inhibitors of TRPV4 and TRPA1 for sanitizing and anesthetizing” (Duke University, priority 2016, dated 2023).

Key:
[1] = test system: Trpv4−/− mice, whisker-pad injection of formalin; test: Formalin-evoked trigeminal irritant pain, systemic (i.p.) compound, Trpv4−/− mice; format: in vivo, mouse; conditions: 10 mg/kg i.p.; for late-phase pain behavior: vs vehicle / vs A967079 25 mg/kg
Protocol: FIGS. 31A-31D: 16-8 and 16-19 effectively attenuate formalin-evoked trigeminal irritant pain. (FIG. 31A) Time-course of nocifensive behavior in WT mice following whisker-pad injection of 4% formalin. The mice were pre-injected (i.p., 10 mg/kg; 15 min before formalin) with GSK205, 16-8 or 16-19. Note effective reduction of nocifensive behavior in the late “neural” phase by compounds 16-8, 16-19, not by GSK205. (FIG. 31B) Cumulative response binned into 3 phases: acute phase (0-5 min), interphase (5-15 min), and late “neural” phase (15-45 min). […] (FIG. 31C) As in (FIG. 31A), but also including Trpv4^−/− mice. Compounds were applied i.p. 15 min before formalin challenge, at 10 mg/kg except established TRPA1 blocker, A967079 (25 mg/kg). Previously-established attenuated nocifensive behavior in early and late phase in Trpv4^−/− mice was recapped, which was reduced further by TRPA1 blocker, A967079. (FIG. 31D) As in (FIG. 31B), plus inclusion of Trpv4^−/− mice. Robust effects of TRPA1-blocker, A967079, were mimicked equi-potently by 16-8 and 16-19 for early phase, and by 16-8 for late phase, partially by 16-19 for late phase. (FIG. 31A, FIG. 31C) show averaged behavioral metrics per time-point, bars in (FIG. 31B, FIG. 31D) represent mean±SEM; for (D) *p<0.05; #P<0.005, one-way ANOVA; for all panels n=5-8 mice/group.
Compounds were tested for their effect in reducing pain using an in vivo pain model in mice. For mouse formalin-evoked irritant behavior measurements, mice were well-fed, well-rested, and tested at the same time of day, at the same time-point of their circadian rhythm. They were allowed to acclimate to a plexiglas chamber for at least 30 min before testing, and received 10 μL subcutaneous injection of 4% of formalin (diluted from an aqueous solution of commercial 37% formaldehyde with normal saline (NS)) through a 30-gauge needle into the right whiskerpad, as further detailed in Luccarini et al. (J. Pain, 2006, 7, 908-914). Normal saline was used as control injection. After injection, mice were immediately placed back into the chamber and the rubbing behavior was recorded by a private consumer-type video-camera for a 45 min observation period. The recording time was divided into 9 blocks of 5 min, and a nociceptive score was determined per block by measuring the time that the animals spent rubbing the injected area predominantly with the ipsilateral fore-paw and rarely with hind-paw. This rubbing behavior with fore-paw is evoked by pain, which is distinct from itch behavior. Behavioral analysis was conducted by observers blinded to treatment.
We observed significant residual irritant-pain behavior in all phases of the formalin model in Trpv4^−/− mice, consistent with our previous report^13 (FIG. 31C,D). […] A reference TRPA1-inhibitory compound, A967079, was used at 25 mg/kg body weight as a positive control to inhibit TRPA1, based on a previous report^38. Reduction of pain behavior in Trpv4^−/− mice was striking, more than 50% in the late neural phase. […] We conclude that compound 16-8 also functions as a potent TRPA1-inhibitor in an in-vivo irritant pain model specifically designed to assess the contribution of TRPA1 to trigeminal irritant pain, and at least as potent as an established reference TRPA1-antagonistic compound.

human TRPV3 = biological target: T1, human TRPV3 (Homo sapiens, UniProt Q8NET8); test: Ca2+ signal in N2a cells transfected with human TRPV3 (camphor); format: cell-based; conditions: camphor stimulation
T1 construct: expressed in transfected cells; host or cells: N2a cells
T1 sequence (Q8NET8 whole entry): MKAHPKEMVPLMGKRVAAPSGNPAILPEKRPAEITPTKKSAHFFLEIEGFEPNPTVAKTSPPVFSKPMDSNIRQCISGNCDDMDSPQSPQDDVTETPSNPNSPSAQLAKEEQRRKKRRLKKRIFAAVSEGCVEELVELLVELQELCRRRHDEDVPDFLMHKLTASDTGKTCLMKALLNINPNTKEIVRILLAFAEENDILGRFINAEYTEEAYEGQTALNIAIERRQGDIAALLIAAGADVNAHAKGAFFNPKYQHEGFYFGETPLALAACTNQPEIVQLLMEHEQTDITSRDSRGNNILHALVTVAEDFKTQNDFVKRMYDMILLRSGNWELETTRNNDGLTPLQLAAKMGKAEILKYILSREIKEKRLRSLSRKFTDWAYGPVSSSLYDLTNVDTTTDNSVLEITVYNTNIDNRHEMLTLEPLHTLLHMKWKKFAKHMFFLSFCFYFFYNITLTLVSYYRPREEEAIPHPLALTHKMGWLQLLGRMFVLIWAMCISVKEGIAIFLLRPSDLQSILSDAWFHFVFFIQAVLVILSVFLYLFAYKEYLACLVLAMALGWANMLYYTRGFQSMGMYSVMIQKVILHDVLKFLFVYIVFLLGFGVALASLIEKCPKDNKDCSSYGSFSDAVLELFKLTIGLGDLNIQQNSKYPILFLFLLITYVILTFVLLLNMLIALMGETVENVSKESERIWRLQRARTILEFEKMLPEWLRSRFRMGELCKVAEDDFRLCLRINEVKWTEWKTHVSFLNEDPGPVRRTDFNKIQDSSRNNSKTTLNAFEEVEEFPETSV
Protocol: (§1) Compounds were tested for their effect on TRPV1, TRPV2, and TRPV3. Methods were similar to those described in Example 15. Briefly, N2a cells were transfected with human TRPV1, TRPV2, or TRPV3. eGFP-transfection was used as control. For specific stimulation of TRPV1, 5 μM capsaicin was used. For stimulation of TRPV2, hypotonicity (260 mosmol/L) was used, based on previous reports of TRPV2 being osmotically responsive. N2a cells were not responsive to hypotonicity, and neither were control-transfected cells. For TRPV3-expressing cells, camphor (20% of a commercially available stock solution) was used. […] Stimulation and control protocols were applied as for TRPA1-expressing N2a cells as detailed above in Example 15.

[2] = test system: WT mice, whisker-pad injection of 4% formalin; test: Formalin-evoked trigeminal irritant pain, systemic (i.p.) compound, WT mice; format: in vivo, mouse; conditions: 10 mg/kg i.p.
Protocol: FIGS. 31A-31D: 16-8 and 16-19 effectively attenuate formalin-evoked trigeminal irritant pain. (FIG. 31A) Time-course of nocifensive behavior in WT mice following whisker-pad injection of 4% formalin. The mice were pre-injected (i.p., 10 mg/kg; 15 min before formalin) with GSK205, 16-8 or 16-19. Note effective reduction of nocifensive behavior in the late “neural” phase by compounds 16-8, 16-19, not by GSK205. (FIG. 31B) Cumulative response binned into 3 phases: acute phase (0-5 min), interphase (5-15 min), and late “neural” phase (15-45 min). […] (FIG. 31C) As in (FIG. 31A), but also including Trpv4^−/− mice. Compounds were applied i.p. 15 min before formalin challenge, at 10 mg/kg except established TRPA1 blocker, A967079 (25 mg/kg). […]
Compounds were tested for their effect in reducing pain using an in vivo pain model in mice. […] After injection, mice were immediately placed back into the chamber and the rubbing behavior was recorded by a private consumer-type video-camera for a 45 min observation period. The recording time was divided into 9 blocks of 5 min, and a nociceptive score was determined per block by measuring the time that the animals spent rubbing the injected area predominantly with the ipsilateral fore-paw and rarely with hind-paw. […]

human TRPV2 = biological target: T2, human TRPV2 (Homo sapiens, UniProt Q9Y5S1); test: Ca2+ signal in N2a cells transfected with human TRPV2 (hypotonicity); format: cell-based; conditions: hypotonicity 260 mosmol/L
T2 construct: expressed in transfected cells; host or cells: N2a cells
T2 sequence (Q9Y5S1 whole entry): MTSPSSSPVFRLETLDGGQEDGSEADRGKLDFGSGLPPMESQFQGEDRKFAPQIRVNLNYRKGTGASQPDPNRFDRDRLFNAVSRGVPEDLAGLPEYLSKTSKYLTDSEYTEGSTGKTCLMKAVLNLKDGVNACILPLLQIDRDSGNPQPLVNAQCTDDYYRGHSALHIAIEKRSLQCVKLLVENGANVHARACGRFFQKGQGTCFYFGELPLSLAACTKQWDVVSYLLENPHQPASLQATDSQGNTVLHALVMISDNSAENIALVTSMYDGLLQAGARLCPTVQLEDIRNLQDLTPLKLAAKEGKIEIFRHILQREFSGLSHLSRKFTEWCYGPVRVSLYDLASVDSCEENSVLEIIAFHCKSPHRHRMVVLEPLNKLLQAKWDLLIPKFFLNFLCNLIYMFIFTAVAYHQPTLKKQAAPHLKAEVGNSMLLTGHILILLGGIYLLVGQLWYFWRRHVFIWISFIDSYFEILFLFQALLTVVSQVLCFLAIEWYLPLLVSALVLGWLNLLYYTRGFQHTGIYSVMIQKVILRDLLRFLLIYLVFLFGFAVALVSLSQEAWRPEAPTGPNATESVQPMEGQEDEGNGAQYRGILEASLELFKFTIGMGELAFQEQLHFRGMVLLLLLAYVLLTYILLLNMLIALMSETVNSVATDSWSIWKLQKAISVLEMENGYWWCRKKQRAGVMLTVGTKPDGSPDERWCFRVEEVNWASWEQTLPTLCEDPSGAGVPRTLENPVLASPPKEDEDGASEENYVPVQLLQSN
Protocol: as §1

N2a cells = test: Cell viability (resazurin) of N2a cells; format: cell-based; conditions: 48 h; for cellular toxicity vs inhibitory potency against TRPV4/TRPA1, factor: mouse
Protocol: FIGS. 30A-30B: Cellular toxicity studies of compounds 16-8 and 16-19. N2a cells were subjected to increasing concentrations of compounds 16-8 and 16-19, resulting cell viability was analyzed for the next 48 h. (FIG. 30A) Time course of cell viability in the presence of various concentrations of 16-8. […] Representative result of 2 independent experiments.
N2a cells were cultured in 96 well plates for 24-48 h. Cell viability studies relied on metabolic capability monitored with the indicator dye resazurin. Its reduction to resorufin (indicated by color change dark blue to pink) was monitored over time. Changes in absorbance at λ=570 nm were recorded using a microplate reader (Molecular Devices). […] Eight replicate cultures per experimental point were studied.

TRPV1 = biological target: T3, TRPV1 (Mus musculus, UniProt Q704Y3); test: Ca++ imaging in N2a cells over-expressing TRPV1; format: cell-based; conditions: 5 μM, mouse isoform in N2a cells
T3 construct: expressed in transfected cells; host or cells: N2a cells, eGFP co-transfected
T3 sequence (Q704Y3 whole entry, canonical isoform): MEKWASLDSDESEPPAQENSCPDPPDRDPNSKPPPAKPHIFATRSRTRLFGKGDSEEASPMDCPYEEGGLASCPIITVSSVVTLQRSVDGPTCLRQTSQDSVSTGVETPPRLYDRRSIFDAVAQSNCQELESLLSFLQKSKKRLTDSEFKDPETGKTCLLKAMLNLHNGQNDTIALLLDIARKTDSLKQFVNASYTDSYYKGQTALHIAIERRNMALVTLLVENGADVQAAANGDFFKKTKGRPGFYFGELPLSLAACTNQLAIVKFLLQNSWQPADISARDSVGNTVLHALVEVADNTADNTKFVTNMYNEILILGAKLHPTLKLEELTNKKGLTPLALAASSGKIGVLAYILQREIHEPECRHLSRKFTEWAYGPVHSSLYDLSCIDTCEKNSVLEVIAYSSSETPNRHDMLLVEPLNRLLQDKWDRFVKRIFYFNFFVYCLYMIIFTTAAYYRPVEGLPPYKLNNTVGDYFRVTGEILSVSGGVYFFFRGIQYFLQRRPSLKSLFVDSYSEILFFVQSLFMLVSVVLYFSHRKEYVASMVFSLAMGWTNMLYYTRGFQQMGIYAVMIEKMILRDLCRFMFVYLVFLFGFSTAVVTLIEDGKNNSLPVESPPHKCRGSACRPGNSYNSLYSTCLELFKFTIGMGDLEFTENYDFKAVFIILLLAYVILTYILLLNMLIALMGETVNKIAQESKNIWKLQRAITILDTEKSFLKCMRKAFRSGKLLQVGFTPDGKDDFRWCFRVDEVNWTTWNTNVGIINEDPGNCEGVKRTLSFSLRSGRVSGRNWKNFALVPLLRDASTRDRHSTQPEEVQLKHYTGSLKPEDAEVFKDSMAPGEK
Source text: Mean±SEM is shown, ≥100 cells per condition. […] Plot generated from averaged peak ΔCa++ concentration of […] per data-point.

[3] = Stability of compound in plasma; conditions: 4 h incubation in plasma at 37° C.
Source text: Results are expressed as means±SEM, n=6 mice/experimental group for all experiments.

| SMILES | immediate-phase pain behavior [1] | late-phase pain behavior [1] | effect on Ca2+ transience, TRPV3 (human TRPV3) | formalin-evoked pain behavior in the delayed (late, neural) phase [2] | effect on Ca2+ transience, TRPV2 (human TRPV2) | cell viability time course at increasing concentrations (N2a cells) | cellular toxicity vs inhibitory potency against TRPV4/TRPA1, factor (N2a cells) | inhibition of TRPV1 (TRPV1) | stability in plasma [3] |
| --- | --- | --- | --- | --- | --- | --- | --- | --- | --- |
| CN(CCc1ccc(Nc2nc(-c3ccccc3)cs2)cc1)Cc1ccccc1 [Compound 16-8] | virtually eliminated | strikingly reduced | not affected | significant attenuation | not affected | clear reduction at 40 and 80 μM | 50-100 | did not inhibit | – |
| CCN(CCc1ccc(Nc2nc(-c3ccccc3)cs2)cc1)Cc1ccccc1 [Compound 16-19] | virtually eliminated | significantly reduced | not affected | robust effect | not affected | – | 50-100 | did not inhibit | no loss of detectable compound |
